Source: the OPERA property sets (Mansouri et al. 2018)

Row | Structure (SMILES) | melting point [°C] | boiling point [°C] | log10 vapour pressure (mmHg) | log10 Henry constant (atm·m³/mol) | log10 Koc (L/kg) | ready biodegradability | log10 Koa
1 | O=C(NCC1CCCCN1)c1cc(OCC(F)(F)F)ccc1OCC(F)(F)F (stereo not drawn) | 146 |  |  |  |  |  | 
2 | O=C(c1ccccc1)c1cccc([N+](=O)[O-])c1 | 95 |  |  |  |  |  | 
3 | CCCCCC#CCO | -18 |  |  |  |  |  | 
4 | O=C(O)CC(CC(=O)O)C(=O)O | 166 |  |  |  |  |  | 
5 | C#CCCCCCC | -79.3 | 126 | 1.13 |  |  |  | 
6 | Nc1cc(Cl)ccc1[N+](=O)[O-] | 128 |  |  |  |  |  | 
7 | COC(=O)c1cccc2ccccc12 | 59.5 |  |  |  |  |  | 
8 | FC(F)(F)c1ccc(Br)cc1 |  | 160 |  |  |  |  | 
9 | OCc1ccc(O)cc1 | 124 | 252 |  |  |  |  | 
10 | O=S(=O)(Cc1ccccc1)c1ccccc1 | 146 |  |  |  |  |  | 
11 | O=C1c2ccccc2-c2ccc(Cl)cc21 | 126 |  |  |  |  |  | 
12 | CC=C(C)C=CC=C(C)C | -28 |  |  |  |  |  | 
13 | N=C(N)c1ccc(Oc2ccc(C(=N)N)cc2)cc1 | 216 |  |  |  |  |  | 
14 | CCCCCCCC/C=C\CCCCCCCC#N | -1 |  |  |  |  |  | 
15 | Brc1ccccc1 | -30.6 | 156 | 0.621 | -2.61 | 2.49 | not readily biodegradable | 
16 | ClC(Cl)(Br)C(Cl)(Cl)Br | 202 |  |  |  |  |  | 
17 | CC(=O)CO | -17 | 146 |  |  |  | readily biodegradable | 
18 | Cc1cc2ccccc2o1 |  | 198 | -0.312 |  |  |  | 
19 | O=[N+]([O-])c1cccc(S(=O)(=O)O)c1 |  |  |  |  |  | not readily biodegradable | 
20 | COC(F)(F)C(Cl)Cl | -35 | 105 |  | -2.43 |  |  | 
21 | Cc1cc(C2CC2)nc(Nc2ccccc2)n1 | 75.9 |  | -5.43 |  |  |  | 
22 | CC1=CC(=O)C=CC1=O | 69 |  |  |  |  |  | 

Row | Structure (SMILES) | melting point [°C] | boiling point [°C] | log10 vapour pressure (mmHg) | log10 Henry constant (atm·m³/mol) | log10 Koc (L/kg) | ready biodegradability | log10 Koa
23 | C=C(C)C(C)C | -157 | 55.6 | 2.4 |  |  |  | 
24 | CC(=O)C(C)C | -92 | 94.3 | 1.72 |  |  | readily biodegradable | 3.04
25 | O=[N+]([O-])Nc1ccccc1 | 47.3 |  |  |  |  |  | 
26 | COc1cc(CNC(=O)CCCC/C=C/C(C)C)ccc1O | 65 |  |  |  |  |  | 
27 | CC(=O)NCCCCCC(=O)O | 104 |  |  |  |  |  | 
28 | C[C@H](N)[C@H](O)c1cccc(O)c1 | 108 | 218 |  |  |  |  | 
29 | Nc1cc(C(Cl)=C(Cl)Cl)c(S(N)(=O)=O)cc1S(N)(=O)=O | 203 |  |  |  |  |  | 
30 | O=C(O)CCCCCCCCCCCC(=O)O | 111 |  |  |  |  |  | 
31 | C[Si](C)(C)O[Si](C)(C)C | -66 | 99 | 1.62 |  |  |  | 
32 | CCCc1ccc(C)cc1 | -63.6 | 183 | 0.043 |  |  |  | 
33 | C=CC[Si](Cl)(Cl)CC=C |  |  | 0.445 |  |  |  | 
34 | Cc1ccc([N+](=O)[O-])cc1O |  |  |  |  |  | not readily biodegradable | 
35 | CCCC[C@@H](O)CC |  |  | -0.131 |  |  |  | 
36 | C | -182 | -162 | 5.67 |  |  |  | -0.38
37 | Cc1ccccc1Oc1ccccc1[N+](=O)[O-] | 39.5 |  |  |  |  |  | 
38 | Nc1ccc(Cl)c(Cl)c1 | 72 | 272 | -2.2 |  | 2.29 | not readily biodegradable | 
39 | COc1ccc(CC#N)cc1OC | 62.8 |  |  |  |  |  | 
40 | c1ccc(Nc2ccc(Nc3ccccc3)cc2)cc1 |  |  | -8.2 |  |  | not readily biodegradable | 
41 | CC(C)(N)c1ccccc1 |  | 196 |  |  |  |  | 
42 | O=[N+]([O-])c1ccc(Cl)c(Cl)c1Cl | 55.5 |  |  |  |  |  | 
43 | CCN |  | 16.6 | 3.02 | -4.91 |  | readily biodegradable | 
44 | CCCCCCCCCCCCCN | 27.4 | 276 |  |  |  |  | 

Row | Structure (SMILES) | melting point [°C] | boiling point [°C] | log10 vapour pressure (mmHg) | log10 Henry constant (atm·m³/mol) | log10 Koc (L/kg) | ready biodegradability | log10 Koa
45 | Oc1cccc(O)c1O | 133 | 309 | -3.32 |  |  | readily biodegradable | 
46 | CC(F)(F)CC(F)(F)F |  | 40 |  |  |  |  | 
47 | CC#CC(=O)O | 78 | 203 |  |  |  |  | 
48 | CC(C=O)c1ccccc1 (stereo not drawn) |  | 204 | -0.569 |  |  |  | 
49 | CCCCCCCCCOC(C)=O | -26 | 210 |  |  |  |  | 
50 | CCCCc1cc(C)ccc1O | 19 | 228 |  |  |  |  | 
51 | Cc1cc(C)c(N(C)C)c(C)c1 |  | 214 |  |  |  |  | 
52 | COc1cc(OC)c(C(=O)O)cc1OC | 145 | 300 |  |  |  |  | 
53 | CN1CSCSC1 | 65 | 185 |  |  |  |  | 
54 | O=C(OCCOCCOC(=O)c1ccccc1)c1ccccc1 | 33.5 |  |  |  |  |  | 
55 | CCOP(=S)(OCC)O/N=C(\C#N)c1ccccc1 | 6.1 |  | -4.8 |  |  | not readily biodegradable | 
56 | C=C(C(=O)O)c1ccccc1 | 106 |  |  |  |  | readily biodegradable | 
57 | C=Cc1c(Cl)cccc1Cl | 89 |  |  |  |  |  | 
58 | Nc1cccc(N)c1N | 103 | 336 |  |  |  |  | 
59 | C[Si](C)(C)O[Si](C)(O[Si](C)(C)C)O[Si](C)(C)C |  |  | -1.4 |  |  |  | 
60 | O=C(O)C1CCCC1 | -7 | 212 |  |  |  |  | 
61 | CSSC | -85 | 110 | 1.46 | -2.92 |  | not readily biodegradable | 
62 | Clc1cc2c(cc1Cl)Oc1c(Cl)c(Cl)c(Cl)c(Cl)c1O2 | 273 |  | -10.4 |  |  |  | 
63 | O=C1c2ccccc2-c2cccc3cccc1c23 | 170 |  |  |  |  | not readily biodegradable | 
64 | Cc1cccc(S)c1 | -20 | 195 | -0.257 |  |  |  | 
